Assay [1] has as its target T1, Replicative DNA helicase DnaB (Mycobacterium tuberculosis, UniProt P9WMR3).
T1 sequence (P9WMR3 whole entry): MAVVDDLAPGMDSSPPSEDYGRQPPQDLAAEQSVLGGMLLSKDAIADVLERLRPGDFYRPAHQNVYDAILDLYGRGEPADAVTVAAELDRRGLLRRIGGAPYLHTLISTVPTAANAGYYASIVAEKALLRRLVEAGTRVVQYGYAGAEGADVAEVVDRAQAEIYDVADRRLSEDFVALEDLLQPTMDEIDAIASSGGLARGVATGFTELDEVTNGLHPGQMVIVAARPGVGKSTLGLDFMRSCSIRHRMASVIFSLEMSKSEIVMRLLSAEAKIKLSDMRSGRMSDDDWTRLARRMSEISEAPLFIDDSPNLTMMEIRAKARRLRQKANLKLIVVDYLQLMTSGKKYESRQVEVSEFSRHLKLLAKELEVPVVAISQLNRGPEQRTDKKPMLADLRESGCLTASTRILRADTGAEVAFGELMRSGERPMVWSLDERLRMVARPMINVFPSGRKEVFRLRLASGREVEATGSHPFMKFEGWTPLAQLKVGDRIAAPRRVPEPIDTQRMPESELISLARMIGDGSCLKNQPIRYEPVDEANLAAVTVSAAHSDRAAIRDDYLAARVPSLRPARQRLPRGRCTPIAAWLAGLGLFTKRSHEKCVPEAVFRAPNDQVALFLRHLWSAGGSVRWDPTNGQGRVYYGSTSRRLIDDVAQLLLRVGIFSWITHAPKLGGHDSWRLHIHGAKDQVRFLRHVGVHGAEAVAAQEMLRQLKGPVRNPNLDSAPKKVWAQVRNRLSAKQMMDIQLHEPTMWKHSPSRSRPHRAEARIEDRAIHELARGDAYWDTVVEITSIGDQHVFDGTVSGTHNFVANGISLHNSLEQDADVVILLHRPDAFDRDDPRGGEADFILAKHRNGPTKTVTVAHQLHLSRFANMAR
The experiment in a line: DnaB intein splicing inhibitors, dose response, biochemical, cell-free fluorescence (AID 449749). The assay is classed as functional.

The target of assay [2] is T2, Apoptotic protease-activating factor 1 (Homo sapiens, UniProt O14727).
T2 sequence (O14727 whole entry): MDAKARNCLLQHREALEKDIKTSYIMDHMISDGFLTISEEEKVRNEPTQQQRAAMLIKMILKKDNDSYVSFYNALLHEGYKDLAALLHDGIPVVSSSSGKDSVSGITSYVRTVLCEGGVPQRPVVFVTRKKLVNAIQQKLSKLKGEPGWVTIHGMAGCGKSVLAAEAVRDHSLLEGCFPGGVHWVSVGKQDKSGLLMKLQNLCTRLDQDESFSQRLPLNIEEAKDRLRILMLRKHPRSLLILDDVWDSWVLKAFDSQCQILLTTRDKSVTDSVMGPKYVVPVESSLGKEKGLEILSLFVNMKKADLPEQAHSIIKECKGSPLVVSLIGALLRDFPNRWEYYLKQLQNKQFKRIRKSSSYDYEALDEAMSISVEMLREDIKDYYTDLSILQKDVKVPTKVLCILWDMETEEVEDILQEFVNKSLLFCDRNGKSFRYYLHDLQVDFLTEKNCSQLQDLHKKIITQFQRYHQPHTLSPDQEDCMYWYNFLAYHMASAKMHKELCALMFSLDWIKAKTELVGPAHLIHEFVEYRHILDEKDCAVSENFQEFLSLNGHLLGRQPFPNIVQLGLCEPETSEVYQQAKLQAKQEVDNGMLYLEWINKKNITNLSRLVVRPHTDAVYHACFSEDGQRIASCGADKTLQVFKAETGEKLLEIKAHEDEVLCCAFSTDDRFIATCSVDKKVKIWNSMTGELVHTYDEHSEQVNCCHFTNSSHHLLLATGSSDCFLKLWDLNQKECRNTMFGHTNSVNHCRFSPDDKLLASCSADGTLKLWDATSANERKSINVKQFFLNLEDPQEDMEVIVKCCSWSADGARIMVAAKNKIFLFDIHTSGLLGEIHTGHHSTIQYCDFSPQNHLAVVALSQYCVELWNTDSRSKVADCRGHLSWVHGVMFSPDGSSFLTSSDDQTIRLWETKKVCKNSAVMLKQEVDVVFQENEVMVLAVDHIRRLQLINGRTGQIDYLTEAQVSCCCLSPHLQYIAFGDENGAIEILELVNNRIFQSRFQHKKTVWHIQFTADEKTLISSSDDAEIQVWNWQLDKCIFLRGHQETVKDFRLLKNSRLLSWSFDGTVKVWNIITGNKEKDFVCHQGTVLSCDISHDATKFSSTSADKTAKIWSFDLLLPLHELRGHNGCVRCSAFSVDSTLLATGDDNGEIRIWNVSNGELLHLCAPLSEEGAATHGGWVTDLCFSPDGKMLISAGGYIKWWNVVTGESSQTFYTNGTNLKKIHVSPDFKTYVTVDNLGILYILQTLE
Format: functional.

The target of assay [3] is T3, Protein RecA (Mycobacterium tuberculosis, UniProt P9WHJ3).
T3 sequence (P9WHJ3 whole entry): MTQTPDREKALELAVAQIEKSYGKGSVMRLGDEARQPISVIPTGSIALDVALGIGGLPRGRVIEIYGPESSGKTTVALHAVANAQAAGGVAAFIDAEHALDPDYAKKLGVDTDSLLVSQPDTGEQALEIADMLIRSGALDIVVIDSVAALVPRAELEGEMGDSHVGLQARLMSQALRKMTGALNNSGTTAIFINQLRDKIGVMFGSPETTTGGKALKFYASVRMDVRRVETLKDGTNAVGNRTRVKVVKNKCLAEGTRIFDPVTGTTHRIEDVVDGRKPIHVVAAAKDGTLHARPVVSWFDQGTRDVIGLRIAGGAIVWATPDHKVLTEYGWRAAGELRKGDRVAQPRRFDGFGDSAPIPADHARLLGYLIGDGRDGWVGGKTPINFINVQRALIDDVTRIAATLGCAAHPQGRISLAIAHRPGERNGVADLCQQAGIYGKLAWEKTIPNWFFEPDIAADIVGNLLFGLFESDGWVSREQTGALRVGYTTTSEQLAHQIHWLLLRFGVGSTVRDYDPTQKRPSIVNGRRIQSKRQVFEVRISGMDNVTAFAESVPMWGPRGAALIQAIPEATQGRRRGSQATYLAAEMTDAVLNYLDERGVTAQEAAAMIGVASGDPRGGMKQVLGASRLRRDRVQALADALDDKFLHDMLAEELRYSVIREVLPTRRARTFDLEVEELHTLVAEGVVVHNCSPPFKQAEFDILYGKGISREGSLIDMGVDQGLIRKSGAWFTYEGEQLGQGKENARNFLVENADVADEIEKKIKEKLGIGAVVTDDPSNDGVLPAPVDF
The experiment in a line: Fluorescence Cell-Free Homogeneous Dose Retest to Identify Inhibitors of RecA-Intein Splicing Activity. [Related pubchem assays (depositor defined):AID2097, AID2223, AID489010, AID492950]. Format: functional.

Assay [4] can be described thus: NIH-3T3 fibroblast cytotoxicity, dose response, cytotoxicity control, cell-based, fluorescence, Alamar Blue, secondary assay (AID 2327).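 Also: NIH-3T3 mouse fibroblasts cultured with fluconazole at 8 µg/mL.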 Format: functional. On the technique in general: Alamar Blue is a resazurin reagent that responds to reducing activity.
The nature of assay [5]: C. albicans growth with fluconazole, confirmation, fluorescence, retest (AID 2467). Format: functional, cell-based.

Each structure is given as a SMILES string. Activity calls are given as the source filed them. Rule as the data show it, for most assays here: actives have a measured EC50 and inactives only a lower limit. Where only a bound is given, the exact number is not on record here.

Broadly, the AC50 is the concentration at which the activity in the assay is half-maximal. What is called IC50 is the concentration at which inhibition is half-maximal. One may read the EC50 as the midpoint of the concentration-response curve. Consider `COc1ccc(-n2c3nc4ccccc4nc3c3c(=N)oc(C)nc32)cc1`, for which, in assay [1], the AC50 is > 120 µM (inactive). Further, the half-inhibitory concentration (IC50) in assay [2] is 19.1 µM (active). The EC50 in assay [3] is > 380 µM (inactive).

In the case of `O=C(/C=C/c1cccs1)NC(=S)NNC(=O)c1ccccc1O`, the half-maximal effective concentration (EC50) is 35.5 µM (active) in assay [4] and > 38 µM (not active) in assay [5].

In the case of `O=C(N/N=C1\C/C(=N\NC(=O)c2ccncc2)c2ccccc21)c1ccncc1`, in assay [1], the AC50 was 6.09 µM (active). Further, the IC50 in assay [2] is 12.8 µM (active). Further, in assay [3], the EC50 was 0.732 µM (active).

`CC(=O)N(Cc1ccc(F)cc1)C1=C(NCCc2ccccc2)C(=O)c2ccccc2C1=O`: the AC50 in assay [1] was 4.93 µM (active). Moreover, the EC50 in assay [4] is 9.84 µM (inconclusive); in assay [5], 0.785 µM (active); in assay [3] it was 1.42 µM (active). In assay [2], the IC50 is 7.39 µM (active).

For the compound `CCCCC(=O)NC(c1ccccc1)c1ccc2cccnc2c1O` (stereo not given), the EC50 in assay [4] was 19.9 µM (inconclusive); in assay [5], 0.569 µM (active).
